From ChEMBL document CHEMBL4406817, “Cell-active carbazole derivatives as inhibitors of the zika virus protease” (Eur J Med Chem, 2019) come the findings set out here.

The target of data set [1] is T1, Nonstructural protein 3 (Zika virus, UniProt A0A024AXB9). As to the kind of experiment: Inhibition of N-terminal His6-tagged Zika virus NS2B (45 to 96 residues) - NS3 (1 to 177 residues) protease domain expressed in Escherichia coli Bl21(DE3) using Bz-nKRR-AMC as substrate preincubated for 30 mins in presence of bZipro and measured for 60 sec over 10 mins by fluorescence based assay.

Data set [2] has as its target T1, Nonstructural protein 3. As to the kind of experiment: Inhibition of N-terminal linked Zika virus NS2B (45 to 96 residues) - NS3 (1 to 177 residues) protease domain expressed in Escherichia coli Bl21(DE3) using Bz-nKRR-AMC as substrate preincubated for 15 mins followed by substrate addition and measured by fluorescence based assay.
The test system of data set [3] is Zika virus. As to the kind of experiment: Antiviral activity against Zika virus H/PF/2013 infected in human HuH7 cells assessed as reduction in viral titer incubated for 24 hrs by plague assay. The conditions noted are these: for pEC50: Zika virus, H/PF/2013, Huh-7, 24 h, read-out: EC50. Format: functional, organism-based.
Data set [4] has as its target T1, Nonstructural protein 3. Put plainly: Inhibition of N-terminal unlinked Zika virus NS2B (45 to 96 residues) - NS3 (1 to 177 residues) protease domain expressed in Escherichia coli Bl21(DE3) using Bz-nKRR-AMC as substrate preincubated for 15 mins followed by substrate addition and measured by fluorescence based assay.
The nature of data set [5]: Cytotoxicity against human HuH7 cells assessed as reduction in cell viability incubated for 48 hrs by cellTiter-Glo assay. Format: cell-based, Huh-7. (In ATP-based viability assays light output follows the ATP content of the culture.)
Data set [6] can be described thus: Selectivity index, ratio of CC50 for cytotoxicity against human HuH7 cells to EC50 for antiviral activity against H/PF/2013 Zika virus infected in human HuH7 cells. Format: toxicity, cell-based. Conditions: for selectivity ratio: HuH7 cells, read-out: Ratio CC50/EC50.
Data set [7] in a line: Selectivity index, ratio of EC50 of antiviral activity against Zika virus infected in human HuH7 cells to IC50 of inhibition of N-terminal unlinked Zika virus NS2B (45 to 96 residues) - NS3 (1 to 177 residues) protease domain expressed in Escherichia coli Bl21(DE3). Format: toxicity.
Data set [8] has as its target Nonstructural protein 3 (Zika virus) (UniProt A0A024AXB9). Put plainly: Non-competitive inhibition of N-terminal unlinked Zika virus NS2B (45 to 96 residues) - NS3 (1 to 177 residues) protease domain expressed in Escherichia coli Bl21(DE3) using Bz-nKRR-AMC as substrate preincubated for 30 mins followed by substrate addition and measured for every 60 sec over 12 mins by fluorescence based Lineweaver-burk plot analysis.

Data set [9] concerns the target T1, Nonstructural protein 3. As to the kind of experiment: Inhibition of N-terminal His6-tagged Zika virus NS2B (49 to 95 residues) - NS3 (1 to 170 residues) protease domain expressed in Escherichia coli Bl21(DE3) using Bz-Nle-Lys-Lys-Arg-AMC as substrate preincubated for 10 mins followed by substrate addition measured after 10 mins by fluorescence based assay.
A short description of data set [10]: Selectivity index, ratio of EC50 of antiviral activity against Zika virus infected in human A549 cells to IC50 of inhibition of N-terminal His6-tagged Zika virus NS2B (49 to 95 residues) - NS3 (1 to 185 residues) protease domain expressed in Escherichia coli Bl21(DE3). In kind it is toxicity.
Data set [11] concerns the target T1, Nonstructural protein 3. Put plainly: Inhibition of N-terminal His-tagged Zika virus NS2B (49 to 95 residues) - NS3 (1 to 185 residues) protease domain expressed in Escherichia coli Bl21(DE3) using TAMRA-RRRRSAG-GXL570 as substrate preincubated for 30 mins followed by substrate addition measured after 1 hr by fluorescence based assay.
Data set [12] is described as follows: Cytotoxicity against human A549 cells assessed as reduction in cell viability incubated for 42 hrs by WST-8 assay. In kind it is cell-based.
In data set [13] the target is T1, Nonstructural protein 3. As to the kind of experiment: Inhibition of N-terminal His6-tagged Zika virus NS2B (46 to 99 residues) - NS3 (1 to 187 residues) protease domain expressed in Rosetta2-(DE3) using Boc-Gly-Arg-Arg-AMC as substrate preincubated for 10 mins followed by substrate addition and measured for 6 mins by fluorescence based assay.
Data set [14] concerns the target T1, Nonstructural protein 3. Put plainly: Inhibition of N-terminal His-tagged Zika virus NS2B (46 to 99 residues) - NS3 (1 to 187 residues) protease domain expressed in Rosetta2-(DE3) assessed as inhibitory constant using Boc-Gly-Arg-Arg-AMC as substrate and measured for 10 mins by fluorescence based assay.
The test system of data set [15] is Zika virus. Put plainly: Antiviral activity against Zika virus. Format: functional, organism-based.

The structures appear in SMILES notation. pEC50, pIC50, pKi: −log10 of the molar value. Activity calls are given as the source filed them. The rule behind the calls is not given here.

T1 sequence (A0A024AXB9 whole entry, the tested form may be a part): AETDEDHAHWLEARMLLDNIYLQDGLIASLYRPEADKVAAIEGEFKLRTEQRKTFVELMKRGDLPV
Chain of Nonstructural protein 3 (Zika virus) (A0A024AXB9 as listed by the source): as the sequence (A0A024AXB9 whole entry, the tested form may be a part) above

In the case of `COc1ccc(S(=O)(=O)n2nc(OC(=O)c3cccc(-c4ccccc4Cl)c3)cc2N)cc1`, the pIC50 (usually the negative decadic logarithm of the IC50, by convention in mol/L) on Nonstructural protein 3 [1] is 7.00.
As for `N=C(N)c1cccc(-c2ccc3ccc(-c4cccc(C(=N)N)c4)cc3c2)c1`, the pIC50 was 4.31 on Nonstructural protein 3 [2] and 4.49 at Nonstructural protein 3 [4]. Moreover, the pEC50 (commonly the negative decadic logarithm of the EC50, by convention in mol/L) in the data set with Zika virus [3] was 5.31.
With `COc1cccc(Cn2c3ccc(Br)cc3c3cc(-c4cccc(C(=N)N)c4)ccc32)c1`, the CC50 (usually the concentration giving 50% cytotoxicity) at 48 h in data set [5] was 5.3 µM. In addition, the selectivity ratio in data set [6] came to 2.3. Further, in the data set with Zika virus [3], the pEC50 was 5.64. Besides, the pIC50 against Nonstructural protein 3 [4] was 5.39.
Take `COc1cccc(Cn2c3ccc(-c4cccc(C(=N)N)c4)cc3c3cc(-c4cccc(C(=N)N)c4)ccc32)c1`: the CC50 at 48 h in data set [5] was 22.7 µM. Moreover, in data set [6], the selectivity ratio was 3.4. In the data set with Zika virus [3], the pEC50 is 5.20. In data set [7], the Selectivity Index lay within 1 to 10. Further, the negative-log IC50 (pIC50) against Nonstructural protein 3 [4] is 5.76.
As to `Cn1c2ccc(-c3cccc(C(=N)N)c3)cc2c2cc(-c3cccc(C(=N)N)c3)ccc21`, the inhibition entry in data set [8] is “Active”. The figures for the pIC50 on Nonstructural protein 3 [2] and on Nonstructural protein 3 [4] were 5.44 and 6.28, respectively. The CC50 at 48 h in data set [5] was determined as 47.5 µM. For the same molecule, in data set [6], the selectivity ratio is 38. In addition, the negative-log EC50 (pEC50) in the data set on Zika virus [3] is 5.90. For the same molecule, in data set [7], the “Selectivity Index” value stood at 3.
For `Cn1c2ccc(Br)cc2c2cc(-c3cccc(C(=N)N)c3)ccc21`, in [5], the 50% cytotoxic concentration (CC50) at 48 h amounted to 6.57 µM. In addition, the selectivity ratio in data set [6] worked out at 5.42. For the same molecule, the pEC50 in the data set with Zika virus [3] was 5.87. In addition, the negative-log IC50 (pIC50) on Nonstructural protein 3 [4] was 4.86.
As to `COc1cccc(S(=O)(=O)n2c3ccc(Br)cc3c3cc(-c4cccc(C(=N)N)c4)ccc32)c1`, the CC50 at 48 h in [5] turned out to be 5.22 µM. The “Ratio CC50/EC50” value in [6] is given as “Not Active”. Further, the EC50 entry with Zika virus [3] is reported as “Not Active”. The same molecule gave a pIC50 on Nonstructural protein 3 [4] of 5.09.
As for `N#Cc1cccc(-c2ccc3c(c2)c2cc(-c4cccc(C#N)c4)ccc2n3Cc2cccc(C(=N)N)c2)c1`, in data set [5], the CC50 at 48 h is 7.48 µM. In addition, the EC50 result with Zika virus [3] is reported as “Not Active”. The pIC50 against Nonstructural protein 3 [4] was 4.83.
On to `COc1cccc(S(=O)(=O)n2c3ccc(-c4cccc(C#N)c4)cc3c3cc(-c4cccc(C(=N)N)c4)ccc32)c1`, for which the CC50 at 48 h in data set [5] was found to be 37.9 µM. For the same molecule, the selectivity ratio in data set [6] was 2.37. Further, the pEC50 in the data set on Zika virus [3] was 4.80. Moreover, the Selectivity Index in [7] lay within 1 to 10. Moreover, on Nonstructural protein 3 [4], the pIC50 is 6.09.
As to `N=C(N)c1cccc(-c2cccc(-c3cccc(C(=N)N)c3)c2)c1`, the pIC50 against Nonstructural protein 3 [2] was 3.98; against Nonstructural protein 3 [4], 4.42.
For the molecule `CC(C)C[C@H]1C(=O)N2CCC[C@H]2[C@]2(O)O[C@](NC(=O)[C@@H]3C=C4c5cccc6[nH]c(Br)c(c56)C[C@H]4N(C)C3)(C(C)C)C(=O)N12` [BROMOCRIPTINE], the pIC50 at Nonstructural protein 3 [9] is 4.88.
`COc1cccc(S(=O)(=O)n2c3ccc(-c4cccc(C(=N)N)c4)cc3c3cc(-c4cccc(C(=N)N)c4)ccc32)c1`: in [5], the CC50 at 48 h is over 100 µM. In addition, in data set [6], the selectivity ratio was over 4. The pEC50 in the data set on Zika virus [3] is 4.62. In data set [7], the Selectivity Index lay in the range of 1 to 10. The molecule also had a pIC50 against Nonstructural protein 3 [4] of 6.00.
Turning to `O=C1C=C/C(=N/Nc2ccc([N+](=O)[O-])cc2Cl)C=C1C(=O)Nc1cccc(Cl)c1`, in data set [10], the “Selectivity Index” value is on record as 48. On Nonstructural protein 3 [11], this molecule showed a pIC50 of 6.42. Further, the CC50 at 42 h in data set [12] amounted to 48.8 µM.
`COc1ccc(Cl)c2sc(NC(=O)c3ccccc3NS(=O)(=O)c3ccc(C)cc3)nc12` gave a pIC50 against Nonstructural protein 3 [13] of 5.39. Also, the pKi (as a rule, the Ki on a negative log10 scale, so that one unit is a factor of ten) at Nonstructural protein 3 [14] was 5.05.
Consider `N=C(N)c1cccc(-c2ccc3c(c2)c2cc(Br)ccc2n3S(=O)(=O)c2cccc(C(=N)N)c2)c1`, for which the CC50 at 48 h in data set [5] came to 35.7 µM. Besides, the selectivity ratio in data set [6] is 4.2. Further, in the data set on Zika virus [3], the pEC50 is 5.23. For the same molecule, the Selectivity Index in data set [7] fell in the range of 1 to 10. The molecule also had a pIC50 on Nonstructural protein 3 [4] of 5.04.
As to `Cn1c2ccc(-c3cccc(C#N)c3)cc2c2cc(-c3cccc(C(=N)N)c3)ccc21`, the CC50 at 48 h in data set [5] was 6.25 µM. Further, in the data set with Zika virus [3], the EC50 result was “Not Active”. Moreover, the pIC50 at Nonstructural protein 3 [4] is 5.77.
As to `N=C(N)c1cccc(NC(=O)Nc2cccc(C(=N)N)c2)c1` [AMICARBALIDE], the pIC50 against Nonstructural protein 3 [2] is 4.32.
`N=C(N)c1cccc(Cn2c3ccc(Br)cc3c3cc(Br)ccc32)c1`: in data set [5], the CC50 at 48 h stood at 12.8 µM. For the same molecule, the selectivity ratio in [6] came to 2.51. Moreover, the pEC50 with Zika virus [3] is 5.29. This molecule gave a pIC50 against Nonstructural protein 3 [4] of 4.59.
Molecule `CO[C@@H]1[C@@H](OC(N)=O)[C@@H](O)[C@H](Oc2ccc3c(O)c(NC(=O)c4ccc(O)c(CC=C(C)C)c4)c(=O)oc3c2C)OC1(C)C` [NOVOBIOCIN] had a pEC50 with Zika virus [15] of 4.21.
Take `N#Cc1cccc(-c2ccc3c(c2)c2cc(-c4cccc(C#N)c4)ccc2n3S(=O)(=O)c2cccc(C(=N)N)c2)c1`: the CC50 at 48 h in data set [5] is 3.35 µM. Moreover, in the data set with Zika virus [3], the EC50 entry was “Not Active”. For the same molecule, the pIC50 at Nonstructural protein 3 [4] is 5.46.
On to `N=C(N)c1cccc(S(=O)(=O)n2c3ccc(Br)cc3c3cc(Br)ccc32)c1`, for which the half-maximal cytotoxic concentration (CC50) at 48 h in [5] is 6.58 µM. The selectivity ratio in [6] is 4.14. Further, the pEC50 in the data set with Zika virus [3] is 5.49. The molecule further gave a negative-log IC50 (pIC50) at Nonstructural protein 3 [4] of 4.85.
As to `COc1cccc(Cn2c3ccc(-c4cccc(C#N)c4)cc3c3cc(-c4cccc(C(=N)N)c4)ccc32)c1`, the CC50 at 48 h in data set [5] turned out to be 3.3 µM. Moreover, the selectivity ratio in data set [6] worked out at 2.8. The pEC50 with Zika virus [3] was 5.71. Further, the pIC50 on Nonstructural protein 3 [4] was 5.72.
